Test results from patent publication US20140235649A1, “USE OF PHOSPHATASE INHIBITORS OR HISTONE DEACETYLASE INHIBITORS TO TREAT DISEASES CHARACTERIZED BY LOSS OF PROTEIN FUNCTION” (LIXTE BIOTECHNOLOGY, INC., priority 2011, published 2014).
Entries after “also recorded” stand apart in the source; their conditions may differ.

Columns and labels:
[1] = system: beta-glucocerebrosidase (GBA); assay: GBA levels in human cells from Gaucher's disease type 1 / type 3 patients (Examples 2-4)
[2] = system: missense glucocerebrosidase; conditions: previously found (REF); cited from earlier work
mutant SDHB protein = assay: Immunoprecipitation of mutant SDHB: ubiquitination and Hsp90 binding; assay type: cell-based, human; conditions: immunoprecipitated ΔSDHB-R49Q (FIG. 14E)
Description: Protein was extracted from cell cultures using IP lysis buffer with Halt proteinase inhibitor cocktail (Thermo Scientific). Four hundred microgram of total protein was precipitated with Flag antibody (1:200, Origene) using a DynaBeads Protein G immunoprecipitation kit (Invitrogen). Proteins were precipitated overnight at 4° C. and eluted for Western blot analysis.

SDHB protein = SDHB protein levels in tumor cells from SDHB derived tumors (Examples 9-10); conditions: Example 9, versus untreated cells
ΔSDHB-L65P = ΔSDHB-L65P protein half-life through CHX treatment, Western blot, HeLa cells; assay type: cell-based, human
Description: Western blot analysis was performed as previously described with minor modifications (Zhuang et al, 2011). Microdissected tumor tissue and cell pellets were extracted for protein using RIPA lysis buffer supplemented with Halt proteinase inhibitor cocktail (Thermo Scientific, Rockford, Ill.). Protein was vortexed at 4° C. for 20 min and centrifuged in 12,000 g for 10 min at 4° C. Supernatant was collected and protein quantity was identified through a Bio-Rad (Hercules, Calif.) Protein Assay kit. Equal amount of proteins were separated on NuPAGE 4-12% Bis-Tris gel (Invitrogen, Carlsbad, Calif.) and transferred to PVDF membranes (Invitrogen). Membranes were blocked in 5% skim dried milk in PBST and blotted with primary antibody. Protein expression was identified through chemiluminescence kit (Thermo Scientific). The following antibodies were used: SDHA (1:1,000, Cell Signaling Technology, Beverly, Mass.), SDHB (1:1,000, Sigma-Aldrich, St. Louis Mo.), Flag (1:2,000, Origene, Rockville, Md.), Ubiquitin (1:1,000, Abcam, Cambridge, Mass.), HA (1:2,000, Origene), Hsp90 (1:1,000, Cell Signaling Technology) and β-Actin (1:1,000, Santa Cruz Biotechnology, Inc., Santa Cruz, Calif.).
HeLa cells were maintained in DMEM containing 10% FBS (Invitrogen). Cells were transfected with SDHB vectors by FuGENE 6 transfection reagent (Roche, Indianapolis, Ind.). Medium was changed 4 hours after transfection and cells were maintained 48 hours before cycloheximide (20 μg/mL, Sigma-Aldrich) treatment.
Ubiquitin-HA vector was described previously (Kamitani et al. (1997)). Human wild type SDHB gene was cloned into pCMV6-Entry vector (Origene). Hot spot missense mutations in SDHB related PHEOs/PGLs based on previous findings (Van Nederveen et al. (2006); Henderson et al. (2009); Pawlu et al. (2005)). Mutagenesis was performed based on wild type SDHB vector using a Quikchange Lightning Site-Directed Mutagenesis Kit (Agilent, Santa Clara, Calif.). For each mutant, the sequence of SDHB gene was verified through sequencing the entire coding region of the gene. Vectors were purified through PureLink HiPure Plasmid Maxiprep kit (Invitrogen) for transfection and cell free protein expression.

VHL protein = VHL protein levels in tumor cells from VHL derived tumors (Examples 6-7); conditions: Example 6, versus untreated cells
ΔGBA-L444P = assay: Metabolic [35S] pulse chase assay, HeLa cells with ΔGBA-L444P vector; assay type: cell-based, human; conditions: L444P mutant
Description: (§1) Human GBA gene was cloned into pCMV6-Entry vector (Origene; Rockville, Md.). Mutagenesis was performed using a QuikChange Lightning Site-directed mutagenesis kit (Agilent; Santa Clara, Calif.). Mutagenesis reaction was conducted using primers with N370S and L444P mutation sites. For each mutant, the sequence of GBA genes was verified by sequencing the entire coding regions.
(§2) Metabolic [^35S] pulse chase assay was performed as previously described with minor modifications (16). A total of 5×10^5 HeLa cells were transfected with GBA vectors through FuGene 6 transfection reagent (Roche; Indianapolis, Ind.). Cells were used for pulse chase assay 24 hr after transfection. Cells were starved in methionine-depleted medium for 15 min followed by 15 min labeling in methionine-free Delbecco's modified Eagle medium (DMEM) supplemented with 10% FBS and 0.2 mCi/mL [^35S]-methionine ([…] specific activity, Perkin Elmer). The cells were then chased in DMEM with 10% FBS and 3 mg/mL methionine. Cells were extracted for protein within various durations after radioactive labeling. Cells were lysed in RIPA lysis buffer containing with Halt proteinase inhibitor cocktail (Thermo; Waltham, Mass.). GBA proteins were purified through immunoprecipitation using 200 ug total lysate with Flag antibody (Origene; Rockville, Md.). Precipitated proteins were resolved on NuPAGE Novex 4-12% Bis-Tris Gel (Invitrogen; Carlesbad, Calif.) and measured by liquid scintillation counting. The gel was fixed and incubated in EN3HANCE (Perkin Elmer; Waltham, Mass.) for 45 min and dried for X-ray film exposure.

ΔGBA-N370S = assay: Metabolic [35S] pulse chase assay, HeLa cells with ΔGBA-N370S vector; assay type: cell-based, human; conditions: N370S mutant
Description: as §1, §2

CN1CCN(C(=O)C2C(C(=O)O)[C@H]3CC[C@@H]2O3)CC1 (stereo partly shown) [LB100]
GBA levels / amount of GBA ([1]; Gaucher's disease type 1 and type 3 cells, 24 hours (Example 3, FIG. 1-3)): increased; also recorded: increased in all treatments, and the increase was not dose-dependent; also recorded: significantly higher than in untreated cells | GBA levels ([1]; Gaucher's disease type 3 cells, 24 hours (Example 2)): significantly higher than in untreated cells

O=C(CCCCCNC(=O)c1ccccc1S)Nc1ccccc1 [LB-201]
co-translational degradation of missense glucocerebrosidase [2]: protect missense glucocerebrosidase from co-translational degradation | Hsp90 binding to mutant SDHB (mutant SDHB protein): also decreased | SDHB mutant protein ubiquitination (mutant SDHB protein): decreased SDHB mutant protein ubiquitination | SDHB levels (SDHB protein): significantly higher than in untreated cells | degradation of SDHB (SDHB protein): decreased degradation of SDHB | degradation / loss of mutant SDHB protein (ΔSDHB-L65P; L65P mutant): slowed the degradation of mutant protein; also recorded: decreased the loss of mutant SDHB | VHL levels (VHL protein): significantly higher than in untreated cells | degradation of VHL (VHL protein): decreased degradation of VHL

CC1=C(O)C(=O)C=C2C1=CC=C1[C@@]2(C)CC[C@@]2(C)[C@@H]3C[C@](C)(C(=O)O)CC[C@]3(C)CC[C@]12C [celastrol]
increase in [35S]-GBA residue (ΔGBA-L444P): 104% | increase in radioactively labeled protein quantity (ΔGBA-N370S): 33% | SDHB protein remaining intact (ΔSDHB-L65P; L65P, after a 2 hr CHX treatment): more than 50%
